Source: PMC10300102, “In vivo inhibition of nuclear ACE2 translocation protects against SARS-CoV-2 replication and lung damage through epigenetic imprinting” (Nature Communications, 2023)
Where a name gives a salt, the structure may show the parent alone. Read-outs that look alike come from different tables or passages of the source.

Experiment: In vitro monkey plasma assay
Format: in vitro ADME, cynomolgus monkey
Conditions: for remaining at 0.25 h, 2 µM: time 15 min; for remaining at 0.5 h, 2 µM: time 30 min; for remaining at 1 h, 2 µM: time 60 min; for remaining at 2 h, 2 µM: time 120 min
Protocol: Briefly, pooled frozen plasma was thawed at 37 °C prior to experiments. Plasma was centrifuged at 3720 x g for 5 min and any clots were removed. All blanks and working solutions were aliquoted on an Apricot automation workstation (2 μL/well of working solution (100 μM) with 98 μL plasma for NACE2i peptide (CP300638) and control compounds somatostatin acetate and procaine hydrochloride). All reaction plates containing mixtures of NACE2i, somatostatin acetate, and procaine hydrochloride and plasma were incubated at 37 °C in a water bath for 0, 15, 30, 60, 120, 240, and 360 min. Incubation was stopped with 4% H3PO4 and stop solution (200 ng/mL tolbutamide and 200 ng/mL labetalol in MeOH) to precipitate protein. Each plate was sealed and shaken for 20 min and then centrifuged at 3720 x g at 4 °C for 20 min. After centrifugation, the Apricot workstation was used to transfer 150 μL supernatant to each bioanalysis plate, which was then sealed and shaken for 10 min prior to LC-MS/MS analysis as per the manufacturer’s guidelines. LC: Shimadzu LC 30-AD, MS: QTRAP 6500 + , Autosampler: CTC PAL.

[1] = male, monkey, pooled plasma, cynomolgus monkey plasma, n=2
[2] = monkey, plasma (pooled, frozen), cynomolgus monkey plasma, n=2

Row | Compound | % Remaining (cynomolgus monkey plasma, time 0 min, n=2) [%] | remaining at 0.25 h, 2 µM [1] [%] | remaining at 0.5 h, 2 µM [1] [%] | remaining at 1 h, 2 µM [1] [%] | remaining at 2 h, 2 µM [1] [%] | remaining at 6 h, 2 µM (male, monkey, pooled plasma, cynomolgus monkey plasma, time 360 min, n=2, read-out: % Remaining) [%] | remaining at 6 h, 2 µM (male, monkey, pooled plasma, pooled male cynomolgus monkey plasma, 2 µL of 100 µM working solution + 98 µL plasma, 37 °C, 360 min, LC-MS/MS, read-out: % remaining in plasma after 360 min incubation) [%] | remaining at 0.25 h, 2 µM [2] [%] | remaining at 0.5 h, 2 µM [2] [%] | remaining at 1 h, 2 µM [2] [%] | remaining at 2 h, 2 µM [2] [%] | remaining at 4 h, 2 µM (monkey, plasma (pooled, frozen), cynomolgus monkey plasma, time 240 min, n=2) [%] | remaining at 6 h, 2 µM (monkey, plasma (pooled, frozen), cynomolgus monkey plasma, time 360 min, n=2, read-out: % Remaining) [%] | % remaining in plasma after 360 min incubation (pooled male cynomolgus monkey plasma, 2 µL of 100 µM working solution + 98 µL plasma, 37 °C, 360 min, LC-MS/MS) [%]
1 | CCN(CC)CCOC(=O)c1ccc(N)cc1 [procaine hydrochloride, reference compound] | 100 | 27.3 | 3.07 | 0.813 | 0.381 | 0.0209 | 0 | – | – | – | – | – | – | –
2 | C[C@H](N)C(=O)NCC(=O)N[C@H]1CSSC[C@@H](C(=O)O)NC(=O)[C@H](CO)NC(=O)[C@H]([C@@H](C)O)NC(=O)[C@H](Cc2ccccc2)NC(=O)[C@H]([C@@H](C)O)NC(=O)[C@H](CCCCN)NC(=O)[C@H](Cc2c[nH]c3ccccc23)NC(=O)[C@H](Cc2ccccc2)NC(=O)[C@H](Cc2ccccc2)NC(=O)[C@H](CC(N)=O)NC(=O)[C@H](CCCCN)NC1=O [somatostatin acetate, reference compound] | – | – | – | – | – | – | – | 77.1 | 61.3 | 50.2 | 29 | 18.1 | 3.81 | 3.8
